Measured values taken from patent US12077503B2, “Substituted cyclic amides and their use as herbicides” (FMC CORPORATION, priority 2015, dated 2024).

How the values were obtained:
Assay type in all cases: in vivo
[1] = test system: giant foxtail (Setaria faberii); assay: Test A preemergence; details: Setaria faberi, pre-emergence, 240 h, preemergence, read-out: Plant response rating, Foxtail, Giant
Procedure, shortened: (§1)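 Treatment is preemergence as a directed soil spray after planting, or postemergence at the one- to two-leaf stage, with test chemical in a non-phytotoxic solvent mixture plus surfactant. Plants stay in the greenhouse about 10 d before visual injury scoring on a 0 to 100 scale versus untreated controls.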

[2] = test system: ryegrass, Italian (Italian ryegrass, Lolium multiflorum); assay: Test A preemergence; details: Lolium multiflorum, pre-emergence, 240 h, preemergence, read-out: Plant response rating, Ryegrass, Italian
Procedure, shortened: as §1

[3] = test system: barnyardgrass (Echinochloa crus-galli); assay: Test A preemergence; details: Echinochloa crus-galli, pre-emergence, 240 h, preemergence, read-out: Plant response rating, Barnyardgrass
Procedure, shortened: as §1

[4] = test system: pigweed (Amaranthus retroflexus); assay: Test A preemergence; details: Amaranthus retroflexus, pre-emergence, 240 h, preemergence, read-out: Plant response rating, Pigweed
Kochia (Kochia scoparia) [5] = assay: Test A preemergence; details: Bassia scoparia, pre-emergence, 240 h, preemergence, read-out: Plant response rating, Kochia
Procedure, shortened: as §1

[6] = test system: ragweed (common ragweed, Ambrosia elatior); assay: Test A preemergence; details: Ambrosia artemisiifolia, pre-emergence, 240 h, preemergence, read-out: Plant response rating, Ragweed
Procedure, shortened: as §1

[7] = test system: Galium (catchweed bedstraw, Galium aparine); assay: Test A postemergence; details: Galium, post-emergence, 240 h, 125 g ai/ha, postemergence; visual injury after approximately 10 d; 0 to 100 scale (0 no effect, 100 complete control); read-out: Plant response rating, Galium
Procedure, shortened: as §1

[8] = test system: giant foxtail (Setaria faberii); assay: Test A postemergence; details: Setaria faberi, post-emergence, 240 h, 125 g ai/ha, postemergence; visual injury after approximately 10 d; 0 to 100 scale (0 no effect, 100 complete control); read-out: Plant response rating, Foxtail, Giant
Procedure, shortened: as §1

corn (Zea mays) = assay: Test A postemergence; details: Zea mays, post-emergence, 240 h, 125 g ai/ha, postemergence; visual injury after approximately 10 d; 0 to 100 scale (0 no effect, 100 complete control)
Procedure, shortened: as §1

[9] = test system: ryegrass, Italian (Italian ryegrass, Lolium multiflorum); assay: Test A postemergence; details: Lolium multiflorum, post-emergence, 240 h, 125 g ai/ha, postemergence; visual injury after approximately 10 d; 0 to 100 scale (0 no effect, 100 complete control); read-out: Plant response rating, Ryegrass, Italian
Procedure, shortened: as §1

[10] = test system: wheat (Triticum aestivum); assay: Test A postemergence; details: Triticum aestivum, post-emergence, 240 h, 125 g ai/ha, postemergence; visual injury after approximately 10 d; 0 to 100 scale (0 no effect, 100 complete control); read-out: Plant response rating, Wheat
Procedure, shortened: as §1

[11] = test system: barnyardgrass (Echinochloa crus-galli); assay: Test A postemergence; details: Echinochloa crus-galli, post-emergence, 240 h, 125 g ai/ha, postemergence; visual injury after approximately 10 d; 0 to 100 scale (0 no effect, 100 complete control); read-out: Plant response rating, Barnyardgrass
Procedure, shortened: as §1

[12] = test system: pigweed (Amaranthus retroflexus); assay: Test A postemergence; details: Amaranthus retroflexus, post-emergence, 240 h, 125 g ai/ha, postemergence; visual injury after approximately 10 d; 0 to 100 scale (0 no effect, 100 complete control); read-out: Plant response rating, Pigweed
Procedure, shortened: as §1

Kochia (Kochia scoparia) [13] = assay: Test A postemergence; details: Bassia scoparia, post-emergence, 240 h, 125 g ai/ha, postemergence; visual injury after approximately 10 d; 0 to 100 scale (0 no effect, 100 complete control); read-out: Plant response rating, Kochia
Procedure, shortened: as §1

[14] = test system: blackgrass (Alopecurus myosuroides); assay: Test A postemergence; details: Alopecurus myosuroides, post-emergence, 240 h, 125 g ai/ha, postemergence; visual injury after approximately 10 d; 0 to 100 scale (0 no effect, 100 complete control); read-out: Plant response rating, Blackgrass
Procedure, shortened: as §1

[15] = test system: ragweed (common ragweed, Ambrosia elatior); assay: Test A postemergence; details: Ambrosia artemisiifolia, post-emergence, 240 h, 125 g ai/ha, postemergence; visual injury after approximately 10 d; 0 to 100 scale (0 no effect, 100 complete control); read-out: Plant response rating, Ragweed
Procedure, shortened: as §1

[16] = 125 g ai/ha, visual rating after approx. 10 d, 0 to 100 scale where 0 is no effect and 100 is complete control
[17] = 500 g ai/ha, 0 to 100 scale, 0 = no effect, 100 = complete control

Cc1ccc([C@H]2CN(C)C(=O)[C@@H]2C(=O)Nc2cccc(F)c2C)cc1C [Compound 732]
pest or weed control at 125 g/ha [1, 16]: 90%
pest or weed control at 500 g/ha [1, 17]: 90%
pest or weed control at 125 g/ha [2, 16]: 80%
pest or weed control at 500 g/ha [2, 17]: 80%
pest or weed control at 125 g/ha [3, 16]: 90%
pest or weed control at 500 g/ha [3, 17]: 100%
pest or weed control at 125 g/ha [4, 16]: 0%
pest or weed control at 500 g/ha [4, 17]: 20%
pest or weed control at 125 g/ha (Kochia (Kochia scoparia) [5]; [16]): 70%
pest or weed control at 500 g/ha (Kochia (Kochia scoparia) [5]; [17]): 90%
pest or weed control at 125 g/ha [6, 16]: 0%
pest or weed control at 500 g/ha [6, 17]: 70%
pest or weed control at 125 g/ha [7]: 30%
pest or weed control at 125 g/ha [8]: 90%
Corn plant response rating (crop injury, 0 = no effect, 100 = complete kill) at 125 g/ha (corn (Zea mays)): 70%
pest or weed control at 125 g/ha [9]: 50%
plant injury at 125 g/ha [10]: 80%
pest or weed control at 125 g/ha [11]: 90%
pest or weed control at 125 g/ha [12]: 0%
pest or weed control at 125 g/ha (Kochia (Kochia scoparia) [13]): 20%
pest or weed control at 125 g/ha [14]: 50%
pest or weed control at 125 g/ha [15]: 0%
